In patent publication US10280139B2, “Cytotoxic peptides and conjugates thereof” (priority 2014, dated 2019):

Assays:
Assay in all cases: In vitro cell killing assay of compounds of Formula (I), Cell-Titer-Glo
Assay type in all cases: cell-based
CMK11-5 cells = conditions: Homo sapiens, CMK-11-5, 120 h; free compound, five days incubation
Procedure: (§1) For evaluation of the cell killing potency of the compounds of Formula (I) in vitro, cell proliferation assays were performed in parallel with 8 cell lines: MDA-MB231 clone 16, clone 40, JimT1, HCC1954, NCl-H526, KU812, CMK11-5 cells and Jurkat cells. […] The cell proliferation assays were conducted with Cell-Titer-Glo™ (Promega) five days after cells were incubated with various concentrations of the compound (Riss et al., (2004) Assay Drug Dev Technol. 2:51-62).

HCC1954 = conditions: Homo sapiens, HCC1954, 120 h; free compound, five days incubation
Procedure: as §1

JimT1 = conditions: Homo sapiens, JIMT-1, 120 h; free compound, five days incubation
Procedure: as §1

Jurkat cells = conditions: Homo sapiens, 120 h, free compound, five days incubation
Procedure: as §1

KU812 = conditions: Homo sapiens, KU812, 120 h; free compound, five days incubation
Procedure: as §1

MDA-MB231 clone 16 = conditions: Homo sapiens, MDA-MB-231, 120 h; free compound, five days incubation
Procedure: as §1

MDA-MB231 clone 40 = conditions: Homo sapiens, MDA-MB-231, 120 h; free compound, five days incubation
Procedure: as §1

NCI-H526 = conditions: Homo sapiens, NCI-H526, 120 h; free compound, five days incubation
Procedure: as §1

SMILES	IC50 (CMK11-5 cells)	IC50 (HCC1954)	IC50 (JimT1)	IC50 (Jurkat cells)	IC50 (KU812)	IC50 (MDA-MB231 clone 16)	IC50 (MDA-MB231 clone 40)	IC50 (NCI-H526)
CC[C@H](C)[C@@H]([C@@H](CC(=O)N1CCC[C@H]1[C@H](OC)[C@@H](C)C(=O)N[C@@H](Cc1ccccc1)C(=O)NS(=O)(=O)CCCN=[N+]=[N-])OC)N(C)C(=O)[C@@H](N=C(N(C)C)N(C)C)C(C)C [FP-3, (S)-2-((bis(dimethylamino)methylene)amino)-1-(((3R,4S,5S)-1-((S)-2-((1R,2R)-3-(((S)-N-1-(3-azidopropylsulfonamido)-1-oxo-3-phenylpropan-2-yl)amino)-1-methoxy-2-methyl-3-oxopropyl)pyrrolidin-1-yl)-3-methoxy-5-methyl-1-oxoheptan-4-yl)(methyl)amino)-3-methyl-1-oxobutane]	14.7 nM	10.8 nM	42.1 nM	3.01 nM	6.78 nM	12.7 nM	23.9 nM	22 nM
CC[C@H](C)[C@@H]([C@@H](CC(=O)N1CCC[C@H]1[C@H](OC)[C@@H](C)C(=O)N[C@@H](Cc1ccccc1)C(=O)OC)OC)N(C)C(=O)[C@@H](NC(=O)N(C(C)C)C(C)C)C(C)C [FP-5, (S)-methyl-2-((2R,3R)-3-((S)-1-((3R,4S,5S)-4-((S)-2-(3,3-diisopropylureido)-N,3-dimethylbutanamido)-3-methoxy-5-methylheptanoyl)pyrrolidin-2-yl)-3-methoxy-2-methylpropanamido)-3-phenylpropanoate]	74.8 nM	47 nM	44.7 nM	49.9 nM	106 nM	83.5 nM	139 nM	204 nM
CC[C@H](C)[C@@H]([C@@H](CC(=O)N1CCC[C@H]1[C@H](OC)[C@@H](C)C(=O)N[C@@H](Cc1ccccc1)C(=O)O)OC)N(C)C(=O)[C@@H](/N=C(\N(C)C)N(C)CCN(C)C(=O)CCCCCN1C(=O)C=CC1=O)C(C)C [NL-9, (S)-2-((2R,3R)-3-((S)-1-((3R,4S,7S,E)-4-((S)-sec-butyl)-9-(dimethylamino)-19-(2,5-dioxo-2,5-dihydro-1H-pyrrol-1-yl)-7-isopropyl-3-methoxy-5,10,13-trimethyl-6,14-dioxo-5,8,10,13-tetraazanonadec-8-en-1-oyl)pyrrolidin-2-yl)-3-methoxy-2-methylpropanamido)-3-phenylpropanoic acid]	10.4 nM	2.3 nM	14.2 nM	6.1 nM	8.4 nM	8.1 nM	11.7 nM	29.5 nM
